Common to all, as to format: in vivo, rat
For assay [1], the system named is Male Sprague Dawley rats. Kind of assay: Mortality after severe traumatic brain injury. Particulars: i.v. at 30 minutes after injury, saline 30%. As to the method: (§1) Male Sprague Dawley rats (400±25 g) were pre-trained on both the Rotarod and Barnes maze so as to assess the effects of the compound on post-traumatic motor and cognitive outcome, respectively. After one week of training, rats were severely injured using the impact acceleration model of traumatic brain injury (2 meters) and administered either of the NK-1 receptor antagonist N-(3,5-bis-trifluoromethylbenzyl)-N-methyl-6-(4-methyl-piperazin-1-yl)-4-o-tolyl-nicotinamide (10 mg/kg i.v., based on active, free base), the NMDA (N-methyl-D-aspartate) antagonist MK801 ((+)-10,11-dihydro-5-methyl-5H-dibenzo[a,d]cyclo-hepten-5,10-diyldiammonium maleate; Dizocilpine maleate; 0.3 mg/kg i.v., based on active, free base) or 0.9% saline vehicle (n=10/group) at 30 minutes after injury.
Mortality in rats in this severe model of injury is normally between 20 and 30%. In the saline treated animals, mortality was indeed 30%. […] This high mortality was consistent with this injury level being severe as confirmed by post mortem gross histological analysis of all brains.

The test system of assay [2] is Male Sprague Dawley rats. Description: Rotarod motor outcome after traumatic brain injury (impact acceleration model). Particulars: i.v. at 30 minutes after injury, NK-1 antagonist 10 mg/kg, MK801 0.3 mg/kg, compared with saline vehicle, 24 h to 10 days post-injury. As to the method:
as §1
Over the next 9 days, there was a gradual improvement in motor performance, however the deficit was always significant compared to pre-injury.
(Falling from the rotarod earlier than controls is read as motor impairment.)

For assay [3], the system named is Male Sprague Dawley rats. Kind of assay: Evans Blue extravasation as marker of blood brain barrier permeability after traumatic brain injury. Particulars: Evans Blue i.v. at 4.5 h after injury, circulating 30 mins, saline standardized to 100%. As to the method:
Edema formation in the immediate post-traumatic period is thought to be vasogenic in origin, where increased permeability of the blood brain barrier permits protein extravasation and water accumulation in the brain interstitium. We used Evans Blue extravasation as a marker of blood brain permeability after traumatic brain injury and treatment with the NK-1 receptor antagonist N-(3,5-bis-trifluoromethyl-benzyl)-N-methyl-6-(4-methyl-piperazin-1-yl)-4-o-tolyl-nicotinamide.
At 4.5 h after induction of brain injury, animals were administered i.v. Evans Blue which was allowed to circulate for 30 mins. At that time point, animals were sacrificed and their brains removed for analysis of Evans Blue penetration. The amount of Evans Blue accumulation in the brains of saline treated animals was standardized to 100%. […] As anticipated, uninjured (sham) animals had no significant Evans Blue accumulation in brain tissue.

The test system of assay [4] is Male Sprague Dawley rats. Description: Exploratory behavior and self-grooming (post-traumatic depression) after brain injury. Particulars: brain injured rats, compared with non-injured animals.
In assay [5] the test system is Male Sprague Dawley rats. Kind of assay: Respiratory pattern and weaning off the ventilator after brain injury. The settings on record: brain injured rats. As to the method:
as §1
This stability in respiration is thought to be due to both central effects on respiration and by the NK-1 receptor antagonist administered in the method of treatment of the present invention reducing pulmonary edema formation in brain injured animals.

For assay [6], the system named is Male Sprague Dawley rats. Description: Barnes maze cognitive outcome after traumatic brain injury. Particulars: i.v. at 30 minutes after injury. Here is the method: as §1
Prior to injury, rats were trained to locate an escape tunnel (from aversive sound and light) within 20 sec. This time factor depends on the ability of the animal to learn and remember the location of the escape tunnel.

With `Cc1ccccc1-c1cc(N2CCN(C)CC2)ncc1C(=O)N(C)Cc1cc(C(F)(F)F)cc(C(F)(F)F)c1` [N-(3,5-bis-trifluoromethyl-benzyl)-N-methyl-6-(4-methyl-piperazin-1-yl)-4-o-tolyl-nicotinamide], the mortality (usually the share of the test organisms that died) in assay [1] was 0%. Besides, the “motor outcome (Rotarod Motor Score) after brain injury” value in assay [2] was “significantly better motor outcome”. Moreover, the “Evans Blue accumulation in brain relative to saline treated animals” value in assay [3] stood at 18%. For the same molecule, the “exploratory behavior and self-grooming” value in assay [4] was “not significantly different from non-injured animals”. For the same molecule, in assay [5] (compared with any other treatment group), the “weaning off of the ventilator” value was “far more quickly”. Moreover, the respiratory pattern result in assay [5] (compared with saline and MK801 treated counterparts) is “more stable respiratory pattern”. Further, in assay [6] (at 24 h / at any time point after injury, pre-injury within 20 sec), the “latency to escape the aversive stimuli (Barnes Cognitive Score)” value is “did not demonstrate an increased latency”. Also, the “latency to escape the aversive stimuli, course over the ensuing 9 days” value in assay [6] (days 2-10 post-injury) is listed as “improved with each assessment”.

(Values after US20110053954A1, “METHOD OF TREATMENT AND/OR PREVENTION OF BRAIN, SPINAL OR NERVE INJURY” (priority 2001, published 2011).)
